The values that follow are results of earlier work, collected in paper PMC8650797 (The ocular surface, 2020).

The test system of the data set is herpes simplex virus DNA polymerase. To be noted: native peptide; ref [29] Digard et al.

With EETRRMLHRAFDTLA, the “activity in blocking DNA synthesis in vitro” value is on record as “very poor activity”.
